Measured values reported in patent US8530404B2, “Compounds and methods for treatment of cancer” (FibroGen, Inc., priority 2005, dated 2013).
Where two headings read alike, the source gives them in different places.

Key:
[1] = test system: OVCAR3 ovarian tumors; test: Subcutaneous OVCAR3 ovarian tumor xenograft in SCID mice (Example 7); format: in vivo, mouse; conditions: 60 mg/kg; study end (day 29); FIG. 2
Method: The experiment was conducted essentially as described above in Example 3, except that the tumors of GFP-transfected H460 cells were replaced with OVCAR3 ovarian tumors. […] FIG. 2 is a Kruskal-Wallis box plot. The central bar within each box indicates the median value for the group, the limits of the various boxes and whiskers indicate group quartiles within the total distribution of values determined in this study.

[2] = test system: human H-460-GFP lung tumors; test: Orthotopically implanted human H-460-GFP lung tumor mouse xenograft, survival and metastasis (Example 3); format: in vivo; conditions: for Metastatic Incidence (proportion of animals exhibiting mediastinal lymph node metastasis): vehicle 9/10
Method: To examine the effect of methods and compounds of the present invention in a metastatic model of tumor progression, compounds of the invention were administered to orthotopically implanted H-460-GFP xenografted animals. Tumor models employing surgical orthotopic implantation (SOI) into the organ of origin of the original tumor are regarded as representative of cancer progression and metastasis in humans. Orthotopic implantation of H-460 increases the rate of tumor metastasis.
This experiment is carried out as described in Example 1 above, with the following modifications. To aid in identification and scoring of metastasis, the human H-460 lung cancer cell line was replaced by genetically-engineered tumors of GFP-transfected H-460 cells. 1-2 mm^3 H460-GFP lung tumor fragments were implanted by surgical orthotopic implantation (SOI) and sutured directly into lung tissue. (Yang et al., (1998) Cancer Res 58:4217-4221.) Dosing was initiated immediately after successful confirmation of tumor take by fluorescent GFP imaging (˜5 days following tumor implantation). Doxorubicin (DOX, 7.5 mg/kg, i.v. administration) was used as a chemotherapy control, and was administered on treatment days 3, 7, and 11.
In addition to weekly caliper measurement of primary tumor size, GFP imaging was performed on animals to monitor primary tumor progression and metastasis, starting the first day of treatment. Study endpoints were reached when an average tumor size of 2 cc or three morbid mice appear in any one group, whichever occurs first, regardless of treatment duration. Each animal was checked daily for mortality or signs of morbidity. Morbid animals were frozen. All animals, including dead animals, were examined by GFP imaging for primary tumor and metastasis at necropsy. Imaging and caliper measurements were used to determine the effects of treatment. Primary tumors were excised, measured and weighed at necropsy. Blood samples were taken during terminal sacrifice and complete blood counts (CBC) and reticulocyte analysis were performed.
Tumor metastasis is associated with increased morbidity and mortality in humans with metastatic cancer and in animal models of metastatic cancer. […] The increased morbidity and mortality were recorded and animals were preserved for subsequent necropsy. The study was terminated after >3 animals were found morbid in the vehicle group on treatment day 14, at which point the remaining animals were sacrificed to evaluate and compare tumor progression in the various treatment groups.
To determine metastatic frequency, the thoracic and abdominal cavities of animals were examined by fluorescent imaging.

[3] = test system: BNIP3L gene expression; test: In vivo BNIP3L gene expression in Swiss Webster mice (quantitative PCR); conditions: Mus musculus, iv, 4 h, single 60 mg/kg i.v. dose, four hours after administration, normalized to 18S
Method: (§1) The effects of various compounds of the present invention on the expression of genes associated with tumor growth and progression (e.g., expression of genes associated with anti-proliferative effects) were examined in vivo as follows. In these studies, male Swiss Webster mice (25 g) were administered a single intravenous (i.v.) dose of various compounds (60 mg/kg) of the present invention via the tail vein. Four hours after administration of compound, the kidneys and liver were removed and preserved in RNAlater (Ambion). RNA isolation and cDNA synthesis was carried out as follows. Murine kidney tissue was added to TRIzol (Invitrogen) and homogenized using a 5-mm stainless steel bead for 4 minutes at 25 Hz in a Mixer Mill 300 (Qiagen). Homogenates were extracted with chloroform according to the manufacturer's instructions and aqueous supernatants were isolated. The aqueous supernatants were combined with equal volumes of 70% ethanol and then loaded onto RNeasy Mini spin columns (Qiagen). RNA was isolated according to the manufacturer's instructions.
(§2) Synthesis of cDNA from the isolated total RNA was carried out using Omniscript reverse transcriptase (Qiagen) and random primers according to the manufacturer's instructions. Measurement of gene expression levels in compound-treated animals and in vehicle-treated control animals was performed by quantitative PCR using TaqMan Universal PCR Master Mix (Applied Biosystems) and TaqMan Assay-on-Demand assays (Applied Biosystems) in a Prism 7000 system instrument (Applied Biosystems), according to manufacturer's instructions. The assays used were as follows: 18S ribosomal RNA, Hs99999901_s1; BNIP3, Mm00833810_g1; BNIP3L, Mm00786306_s1; NDRG1, Mm00440447_m1. Each PCR amplification reaction included a standard curve and a water blank. Data for gene expression levels for BNIP3, BNIP3L, and NDRG1 were normalized to that of 18S ribosomal RNA within each sample. Data is presented as fold change in specific mRNA levels relative to that of non-treated control animals.

[4] = Complete blood counts and reticulocyte analysis in H-460 xenograft mice (Example 1); format: in vivo, mouse; conditions: study end
Method: Sizes of the primary tumors were measured through the skin with calipers once per week. Tumor volumes were calculated by the formula V═(W^2*L)/2. Body weight of the mice in each group was also measured once per week during the experimental period. All animals were sacrificed following thirty-two days of treatment. Primary tumors were excised and weighed on an electronic balance. Blood samples were taken during terminal sacrifice and placed in microhematocrit tubes containing EDTA. Complete Blood Counts (CBC) and reticulocyte analysis were performed with the Cell Dyn 3700 analyzer (Abbott Diagnostics), as described by the manufacturer.

[5] = test system: NDRG1 gene expression; test: In vivo NDRG1 gene expression in Swiss Webster mice (quantitative PCR); conditions: Mus musculus, iv, 4 h, read-out: fold change in NDRG1 mRNA level
Method: as §1, §2

[6] = read-out: fold change in BNIP3L mRNA level, kidney
[7] = read-out: fold change in BNIP3L mRNA level, liver

O=C(O)CNC(=O)c1nc(Cl)c2ccccc2c1O [Compound A, [(1-Chloro-4-hydroxy-isoquinoline-3-carbonyl)-amino]-acetic acid]
reduction of median tumor volume compared to vehicle-treated control [1]: 26%
Metastatic Incidence (proportion of animals exhibiting mediastinal lymph node metastasis) ([2]; 20 mg/kg): 8/10
Metastatic Incidence (proportion of animals exhibiting mediastinal lymph node metastasis) ([2]; 60 mg/kg): 7/10
proportion of surviving animals ([2]; treatment day 9, 20 mg/kg): 10/10
proportion of surviving animals ([2]; treatment day 9, 60 mg/kg): 10/10
proportion of surviving animals ([2]; treatment day 11, 20 mg/kg): 10/10
proportion of surviving animals ([2]; treatment day 11, 60 mg/kg): 10/10
proportion of surviving animals ([2]; treatment day 12, 20 mg/kg): 10/10
proportion of surviving animals ([2]; treatment day 12, 60 mg/kg): 9/10
proportion of surviving animals ([2]; treatment day 13, 20 mg/kg): 8/10
proportion of surviving animals ([2]; treatment day 13, 60 mg/kg): 9/10
proportion of surviving animals ([2]; treatment day 14, 20 mg/kg): 8/10
proportion of surviving animals ([2]; treatment day 14, 60 mg/kg): 9/10

C[C@H](NC(=O)c1ncc2cc(Oc3ccccc3)ccc2c1O)C(=O)O [Compound B, (S)-2-[(4-Hydroxy-7-phenoxy-isoquinoline-3-carbonyl)-amino]-propionic acid]
fold induction at 60 mg/kg [3, 6]: 1.2
Abs Retic (reticulocyte count) ([4]; 6 mg/kg PO): 653
Baso % ([4]; 6 mg/kg PO): 6.35%
Baso (basophils) ([4]; 6 mg/kg PO): 1840 µL⁻¹
EOS % ([4]; 6 mg/kg PO): 0.49%
Eos (eosinophil count) ([4]; 6 mg/kg PO): 80 µL⁻¹
HCT (hematocrit) ([4]; 6 mg/kg PO): 37.7%
HGB (hemoglobin) ([4]; 6 mg/kg PO): 12.7 g/dL
IRF (immature RET fraction) ([4]; 6 mg/kg PO): 0.64
Lymph % ([4]; 6 mg/kg PO): 18.3%
Lymph (lymphocytes) ([4]; 6 mg/kg PO): 4700 µL⁻¹
MCH (mean corpuscular hemoglobin) ([4]; 6 mg/kg PO): 14.6 pg
MCHC (MCH concentration) ([4]; 6 mg/kg PO): 33.8 g/dL
MCV (mean corpuscular volume) ([4]; 6 mg/kg PO): 43.2 fL
Mono % ([4]; 6 mg/kg PO): 7.61%
Mono (monocytes) ([4]; 6 mg/kg PO): 2370 µL⁻¹
Neut % ([4]; 6 mg/kg PO): 67.5%
Neut (neutrophils) ([4]; 6 mg/kg PO): 18400 µL⁻¹
PLAT (platelets) ([4]; 6 mg/kg PO): 1.536e+06 µL⁻¹
RBC (red blood cells) ([4]; 6 mg/kg PO): 8.71e+06 µL⁻¹
RDW (RBC distribution width) ([4]; 6 mg/kg PO): 21.4%
RET (reticulocytes) ([4]; 6 mg/kg PO): 7.5%
WBC (white blood cells) ([4]; 6 mg/kg PO): 27300 µL⁻¹
Abs Retic (reticulocyte count) ([4]; 20 mg/kg PO): 552
Baso % ([4]; 20 mg/kg PO): 4.52%
Baso (basophils) ([4]; 20 mg/kg PO): 780 µL⁻¹
EOS % ([4]; 20 mg/kg PO): 0.44%
Eos (eosinophil count) ([4]; 20 mg/kg PO): 70 µL⁻¹
HCT (hematocrit) ([4]; 20 mg/kg PO): 37.7%
HGB (hemoglobin) ([4]; 20 mg/kg PO): 12.7 g/dL
IRF (immature RET fraction) ([4]; 20 mg/kg PO): 0.56
Lymph % ([4]; 20 mg/kg PO): 14.6%
Lymph (lymphocytes) ([4]; 20 mg/kg PO): 2700 µL⁻¹
MCH (mean corpuscular hemoglobin) ([4]; 20 mg/kg PO): 14.5 pg
MCHC (MCH concentration) ([4]; 20 mg/kg PO): 33.7 g/dL
MCV (mean corpuscular volume) ([4]; 20 mg/kg PO): 43.0 fL
Mono % ([4]; 20 mg/kg PO): 4.88%
Mono (monocytes) ([4]; 20 mg/kg PO): 850 µL⁻¹
Neut % ([4]; 20 mg/kg PO): 75.6%
Neut (neutrophils) ([4]; 20 mg/kg PO): 16500 µL⁻¹
PLAT (platelets) ([4]; 20 mg/kg PO): 1.767e+06 µL⁻¹
RBC (red blood cells) ([4]; 20 mg/kg PO): 8.78e+06 µL⁻¹
RDW (RBC distribution width) ([4]; 20 mg/kg PO): 21.7%
RET (reticulocytes) ([4]; 20 mg/kg PO): 6.3%
WBC (white blood cells) ([4]; 20 mg/kg PO): 20800 µL⁻¹
fold induction at 60 mg/kg [5]: 0.9

COc1ccc(Oc2ccc3c(O)c(C(=O)NCC(=O)O)ncc3c2)cc1 [Compound C, {[4-Hydroxy-7-(4-methoxy-phenoxy)-isoquinoline-3-carbonyl]-amino}-acetic acid]
fold induction at 60 mg/kg [3, 6]: 0.9
fold induction at 60 mg/kg [3, 7]: 2.6
Abs Retic (reticulocyte count) ([4]; 20 mg/kg PO): 457
Baso % ([4]; 20 mg/kg PO): 1.47%
Baso (basophils) ([4]; 20 mg/kg PO): 150 µL⁻¹
EOS % ([4]; 20 mg/kg PO): 0.47%
Eos (eosinophil count) ([4]; 20 mg/kg PO): 40 µL⁻¹
HCT (hematocrit) ([4]; 20 mg/kg PO): 41.1%
HGB (hemoglobin) ([4]; 20 mg/kg PO): 14.0 g/dL
IRF (immature RET fraction) ([4]; 20 mg/kg PO): 0.56
Lymph % ([4]; 20 mg/kg PO): 25.2%
Lymph (lymphocytes) ([4]; 20 mg/kg PO): 3000 µL⁻¹
MCH (mean corpuscular hemoglobin) ([4]; 20 mg/kg PO): 14.9 pg
MCHC (MCH concentration) ([4]; 20 mg/kg PO): 34.1 g/dL
MCV (mean corpuscular volume) ([4]; 20 mg/kg PO): 43.8 fL
Mono % ([4]; 20 mg/kg PO): 2.67%
Mono (monocytes) ([4]; 20 mg/kg PO): 320 µL⁻¹
Neut % ([4]; 20 mg/kg PO): 70.2%
Neut (neutrophils) ([4]; 20 mg/kg PO): 11400 µL⁻¹
PLAT (platelets) ([4]; 20 mg/kg PO): 1.707e+06 µL⁻¹
RBC (red blood cells) ([4]; 20 mg/kg PO): 9.36e+06 µL⁻¹
RDW (RBC distribution width) ([4]; 20 mg/kg PO): 22.3%
RET (reticulocytes) ([4]; 20 mg/kg PO): 4.9%
WBC (white blood cells) ([4]; 20 mg/kg PO): 14900 µL⁻¹
Metastatic Incidence (proportion of animals exhibiting mediastinal lymph node metastasis) ([2]; 20 mg/kg): 5/10
proportion of surviving animals ([2]; treatment day 9, 20 mg/kg): 10/10
proportion of surviving animals ([2]; treatment day 11, 20 mg/kg): 10/10
proportion of surviving animals ([2]; treatment day 12, 20 mg/kg): 9/10
proportion of surviving animals ([2]; treatment day 13, 20 mg/kg): 8/10
proportion of surviving animals ([2]; treatment day 14, 20 mg/kg): 8/10
fold induction at 60 mg/kg [5]: 1

O=C(O)CNC(=O)c1ncc2cc(Oc3ccc(F)cc3)ccc2c1O [Compound E, {[7-(4-fluoro-phenoxy)-4-hydroxy-isoquinoline-3-carbonyl]-amino}-acetic acid]
fold induction at 60 mg/kg [3, 6]: 0.8
fold induction at 60 mg/kg [3, 7]: 1.7
proportion of surviving animals ([2]; treatment day 9, 20 mg/kg): 9/10
proportion of surviving animals ([2]; treatment day 11, 20 mg/kg): 9/10
proportion of surviving animals ([2]; treatment day 12, 20 mg/kg): 9/10
proportion of surviving animals ([2]; treatment day 13, 20 mg/kg): 8/10
proportion of surviving animals ([2]; treatment day 14, 20 mg/kg): 8/10
fold induction at 60 mg/kg [5]: 1.8
